According to patent publication US20020062491A1, “Method of producing primary hepatocellular carcinoma-bearing model animals” (WELFIDE CORPORATION, priority 2000, published 2002):

Columns and labels:
Assay type in all cases: in vivo, male Fischer 344 rats
[1] = Survival, final body weight and liver weight, 8-week study (Experimental Example 1); settings: mean ± spread; DEN 95 mg/kg i.p. day 1, 8, 15; PB 60 mg/kg i.p. three times a week from week 5; PH day 28
Method: The eighty six male 4-week-old Fischer 344 rats used in this study were obtained from Charles River Japan, Inc. (Kanagawa). Grouping of the rats was performed according to the latest body weight. The animals were housed, two/cage in a climate-controlled animal room at temperature of 24±3° C., relative humidity of 55±15%, and ventilation rate of 10-20 times/h with 12-hour illumination, and allowed free access to the prescribed diets in every group and tap water.
To the animals in group 1, only a CRF-1 basal diet (Oriental Yest Co., Ltd., Tokyo) was fed. To the ones in group 2, only a CDAA (Dyets Inc., USA) diet was fed. The CDAA diet, whose composition is shown in Table 1, was fed from the day before the 1st administration day of DEN (day 1) and was stored under refrigeration until use. To the ones in group 3, a CRF-1 basal diet was fed and DEN was treated. The dose of DEN was set at 95 mg/kg body weight (2 ml/kg body weight) and rats were intraperitoneally treated once a week for the first three weeks (day 1, 8 and 15). To the ones in group 4, a CDAA diet was fed and DEN was treated. To the ones in group 5, a CRF-1 basal diet was fed and given DEN and PH. In the partial hepatectomy (PH), the left lobe and the right and left sublobes of the median lobe of the liver were excised. […]
All examination data were statistically evaluated by F-t test. […]

[2] = tested on: GST-P-positive foci; assay: Analysis of GST-P-stained liver specimens (GST-P-positive foci); settings: for Focal area (GST-P positive) / Number of foci (GST-P positive) / Number of foci, focal size 0-0.03 mm^2 / Number of foci, focal size 0.03-0.1 mm^2 / Number of foci, focal size 0.1-0.3 mm^2 / Number of foci, focal size 0.3-1.0 mm^2 / Number of foci, focal size 1.0-3.0 mm^2 / Number of foci, focal size 3.0-10.0 mm^2 / Number of foci, focal size 10.0-30.0 mm^2 / Number of foci, focal size 30.0-100.0 mm^2 / Number of foci, focal size 100.0- mm^2: eight weeks; for GST-P-positive foci, comparison between groups in words: group 4 vs group 2, groups 5, 6 vs group 3, groups 7, 8, 9 vs group 4
Method: (§1) To the animals in group 1, only a CRF-1 basal diet (Oriental Yest Co., Ltd., Tokyo) was fed. To the ones in group 2, only a CDAA (Dyets Inc., USA) diet was fed. The CDAA diet, whose composition is shown in Table 1, was fed from the day before the 1st administration day of DEN (day 1) and was stored under refrigeration until use. To the ones in group 3, a CRF-1 basal diet was fed and DEN was treated. The dose of DEN was set at 95 mg/kg body weight (2 ml/kg body weight) and rats were intraperitoneally treated once a week for the first three weeks (day 1, 8 and 15). To the ones in group 4, a CDAA diet was fed and DEN was treated. To the ones in group 5, a CRF-1 basal diet was fed and given DEN and PH. In the partial hepatectomy (PH), the left lobe and the right and left sublobes of the median lobe of the liver were excised. PH was carried out on the day before the first administration of PB (day 28). To the ones in group 6, a CRF-1 basal diet was fed and given DEN, PH, and PB. The dose of PB was set at 60 mg/kg body weight (2 ml/kg body weight) and rats were intraperitoneally treated three times a week from week 5 (day 29, 32, 34, 36, 39, 41, 43, 46, 48, 50, 53, and 55). To the ones in group 7, a CDAA diet was fed and given DEN and PH. To the ones in group 8, a CDAA diet was fed and given DEN and PB. To the ones in group 9, a CDAA diet was fed and given DEN, PH, and PB. This experiment was started on Apr. 10, 1997.
Immunohistochemical staining using polyclonal antibodies against GST-P was applied to facilitate quantitative evaluation of altered hepatocellular foci. Paraffin sections were stained immunohistochemically using the labeled streptavidin-biotin-peroxidase complex (LSAB) method for binding of rabbit anti-rat GST-Yp polyclonal antibody (1:1000; BIO PREP, IRELAND). The analytical procedure for the GST-P-stained specimens was as follows. Photographs (x10) of GST-P-stained specimens of whole cross-section of liver were taken. Photographs were jointed to construct complete cross-sectional image. GST-P-positive foci (hereinafter foci) were painted out with felt pen. Cross-sectional images were processed by Image Scanner (GT-6500, SEIKO EPSONCO., Ltd., Nagano) (using EpScan Mac). The area of each focus and total cross-sectional area of each image were measured using Adobe Photoshop and NIH image. Number of foci per unit area and focal area per unit area were calculated from data on number of foci, mean focal area, total focal area, and total organ area.
All examination data were statistically evaluated by F-t test. First, equal dispersion was tested by F test (significance level 5%). Student-t test was carried out where population variance was judged to be equal, and Welch-t test where it was judged different. Bilateral significance level was set at 5% and 1%.

[3] = tested on: liver; assay: Autopsy and histopathological examination of liver (H.E.-stained specimens); settings: eight weeks; for Histopathological findings of H.E.-stained liver, in words: comparator group as stated in the value (groups 2 and 3: findings not observed in group 1 CRF-1)
Method: as §1
At eight weeks (day 60-63), autopsy was performed after the animals were sacrificed by exsanguination under ether anesthesia. After the liver had been excised and fixed in 10% neutral buffered formalin fixative, paraffin sections and H.E.-stained specimens were prepared and microscopic examination was carried out.

Structure (SMILES) | Body weight (day 57) [1] | Focal area (GST-P positive) [2] | Number of foci (GST-P positive) [2] | Number of foci, focal size 0-0.03 mm^2 [2] | Number of foci, focal size 0.03-0.1 mm^2 [2] | Number of foci, focal size 0.1-0.3 mm^2 [2] | Number of foci, focal size 0.3-1.0 mm^2 [2] | Number of foci, focal size 1.0-3.0 mm^2 [2] | Number of foci, focal size 3.0-10.0 mm^2 [2] | Number of foci, focal size 10.0-30.0 mm^2 [2] | Number of foci, focal size 30.0-100.0 mm^2 [2] | Number of foci, focal size 100.0- mm^2 [2] | GST-P-positive foci, comparison between groups in words [2] | Altered hepatocellular foci, number of animals by grade (±, +, 2+, 3+) ([3]; H.E.-stained liver) | Vacuolar degeneration, number of animals by grade (±, +, 2+, 3+) ([3]; H.E.-stained liver) | Histopathological findings of H.E.-stained liver, in words [3]
CCN(CC)N=O [CRF-1+DEN+PH, Diethylnitrosoamine] | 263.85 ± 3.96 ** * g | 0.015 ± 0.006 CT mm^2/mm^2Liver | 0.467 ± 0.162 . CT /mm^2Liver | 0.335 ± 0.124 . CT /mm^2Liver | 0.105 ± 0.030 CT /mm^2Liver | 0.023 ± 0.014 . CT /mm^2Liver | 0.003 ± 0.002 CT /mm^2Liver | 0.000 ± 0.000 . CT /mm^2Liver | 0.000 ± 0.000 . CT /mm^2Liver | 0.000 ± 0.000 . CT /mm^2Liver | 0.000 ± 0.000 . CT /mm^2Liver | 0.000 ± 0.000 . CT /mm^2Liver | focal areas were elevated | 4 | 4 | altered hepatocellular foci were more marked than in group 3 (CRF-1+DEN)
CCN(CC)N=O [CRF-1+DEN, Diethylnitrosoamine] | 257.52 ± 5.11 CT g | 0.006 ± 0.002 CT mm^2/mm^2Liver | 0.350 ± 0.083 CT /mm^2Liver | 0.312 ± 0.070 CT /mm^2Liver | 0.035 ± 0.021 CT /mm^2Liver | 0.003 ± 0.005 CT /mm^2Liver | 0.000 ± 0.000 CT /mm^2Liver | 0.000 ± 0.000 CT /mm^2Liver | 0.000 ± 0.000 CT /mm^2Liver | 0.000 ± 0.000 CT /mm^2Liver | 0.000 ± 0.000 CT /mm^2Liver | 0.000 ± 0.000 CT /mm^2Liver | foci were observed | – | – | slight vacuolar degeneration and altered hepatocellular foci
